The results in this text go back to US8604059B2, “Thioxanthene derivatives for the treatment of infectious diseases” (BKG Pharma APS, priority 2009, dated 2013).

The test system of experiment [1] is Multiresistant clinical isolates of S. aureus and S. epidermidis. As to the kind of experiment: Maximal reversal of resistance and synergistic effect (Table 4b). The class given is cell-based. The conditions noted are these: for MIC / MIC alone: antibiotic alone, ten strains in each group; for MIC / MIC plus compound 1 0.60 ug/ml / MIC compound 2 0.98 ug/ml / MIC plus compound 3 0.30 ug/ml / MIC plus compound 4 0.75 ug/ml / MIC alone: median; for Fold enhanced, compound 1 0.60 ug/ml: enhancement of antibiotic by compound 1 at 0.60 ug/ml; for Fold enhanced, compound 2 0.98 ug/ml: enhancement of antibiotic by compound 2 at 0.98 ug/ml; for Fold enhanced, compound 3 0.30 ug/ml: enhancement of antibiotic by compound 3 at 0.30 ug/ml; for Fold enhanced, compound 4 0.75 ug/ml: enhancement of antibiotic by compound 4 at 0.75 ug/ml; for MIC plus compound 1 0.60 ug/ml: MIC of antibiotic in presence of compound 1 at 0.60 ug/ml; for MIC compound 2 0.98 ug/ml: MIC of antibiotic in presence of compound 2 at 0.98 ug/ml; for MIC plus compound 3 0.30 ug/ml: MIC of antibiotic in presence of compound 3 at 0.30 ug/ml; for MIC plus compound 4 0.75 ug/ml: MIC of antibiotic in presence of compound 4 at 0.75 ug/ml. The procedure: (§1) The maximal obtained reversal of resistance and synergistic effect was tested as previously described.
Strains: Multiresistant clinical isolates of S. aureus and S. epidermidis, Ten strains in each group.

The subject of experiment [2] is Multiresistant clinical isolates E. coli. Kind of experiment: Maximal reversal of resistance and synergistic effect (Table 4c). The class given is cell-based. The conditions noted are these: for MIC: Escherichia coli; for MIC / MIC alone: antibiotic alone, ten strains; for MIC / MIC plus compound 1 1.0 ug/ml / MIC plus compound 2 2.0 ug/ml / MIC plus compound 3 0.6 ug/ml / MIC alone: median; for Fold enhanced, compound 1 1.0 ug/ml: enhancement of antibiotic by compound 1 at 1.0 ug/ml; for Fold enhanced, compound 2 2.0 ug/ml: enhancement of antibiotic by compound 2 at 2.0 ug/ml; for Fold enhanced, compound 3 0.6 ug/ml: enhancement of antibiotic by compound 3 at 0.6 ug/ml; for MIC plus compound 1 1.0 ug/ml: MIC of antibiotic in presence of compound 1 at 1.0 ug/ml; for MIC plus compound 2 2.0 ug/ml: MIC of antibiotic in presence of compound 2 at 2.0 ug/ml; for MIC plus compound 3 0.6 ug/ml: MIC of antibiotic in presence of compound 3 at 0.6 ug/ml. The procedure: as §1
Strains: Multiresistant clinical isolates E. coli, Ten strains in each group.

The test system of experiment [3] is Candida albicans. As to the kind of experiment: Synergy with fluconazole, broth microdilution NCCLS M27-A (Table 10). The class given is cell-based. The following applies: Candida albicans. The procedure:
The isolates were subcultured for 24 h on Sabouraud glucose agar before susceptibility testing. Broth microdilution tests were performed according to NCCLS document M27-A (Ref: National Commitee for Clinical Laboratory Standards. (1997). Reference Method for Broth Dilution Antifungal Susceptibility Testing of Yeasts: Approved Standard M27-A. NCCLS, Wayne, Pa.) Microtitre plates were read spectrophotometrically at 530 nm, after mixing the wells by pipetting to resuspend yeast sediments. […] The Fractional Inhibitory Concentration (FIC) was calculated for the anti-infective agent alone and in combination with compound 3 and 4 (see table 4) as described above. Synergy was defined as a FIC index of <0.5.
In general terms: In broth dilution the organism is exposed to a series of concentrations in liquid medium.

The test system of experiment [4] is Enterococcus faecalis ENT 28 (VRE). Kind of experiment: Mouse peritonitis model, neutropenic NMRI mice, enhancing effect with linezolid. The class given is in vivo. The procedure: A multiresistant clinical isolate of Enterococcus faecalis ENT 28 (VRE) from human urine was used.
Female NMRI mice (age, approximately 6 to 8 weeks; weight, 30±2 g) were used for the mouse […] peritonitis model (as described below).
In order to detect any synergistic effect, infected mice were treated with sub-therapeutic doses of each test compound alone or a mixture of the two compounds.
Bacterial suspensions were prepared from fresh overnight cultures (made from frozen stock cultures) on 5% blood agar plates as described above. The inoculum for the mouse peritonitis model was prepared immediately before use and was adjusted at 540 nm of giving a density of approximately 10^7 CFU/ml. The size of the inoculum was determined by viability counting on 5% blood agar.
Neutropenia was introduced by pretreating the mice with cyclophosphamide (6 mg daily for three days). […] Antibiotic therapy was initiated just after inoculation. Linezolid and compound 3 was administered subcutaneously in the neck region in a volume of 0.5 ml per dose. 3 mice were in each treatment group. Inoculated untreated control mice were included in all trials. (Method reference: Erlandsdottir et al; Antimicrob Agents Chemother. 2001 April; 45(4):1078-85)
The effects of the various treatment regimens were determined during 5 h of treatment by evaluation of bacterial counts in the peritoneal fluid. After the mice were killed, peritoneal washes were performed by injecting 2 ml of sterile saline intraperitoneally, followed by massage of the abdomen and then opening of the peritoneum to collect the fluid. Peritoneal fluids were immediately diluted 10-fold in saline, from which 20 μl was plated onto 5% blood agar plates in spots, with subsequent counting of colonies after incubation overnight at 35° C. The lowest detection levels for bacterial counts in blood and peritoneal fluid were 50 and 250 CFU/ml, respectively.

[5] abbreviates: treatment 0 and 2 hours, sampling 5 hours, sub-therapeutic doses as in Table 9, individual mice.

“And” between values parts separate entries of the source, which are not always exact repeats. Equal values may be shown once. Read-outs that look alike come from different tables or passages of the source.

On to `CC1(C)S[C@@H]2[C@H](NC(=O)[C@H](N)c3ccccc3)C(=O)N2[C@H]1C(=O)O` [Ampicillin], for which, in experiment [1], the MIC was 16 µg/mL; the “Fold enhanced, compound 1 0.60 ug/ml” value is reported as 4 (4); the “Fold enhanced, compound 2 0.98 ug/ml” value is reported as 4 (4); the “Fold enhanced, compound 3 0.30 ug/ml” value is 8. Also, in experiment [1], the “Fold enhanced, compound 4 0.75 ug/ml” value was 4 (4). Also, in experiment [2], the MIC was 32 µg/mL; the “Fold enhanced, compound 1 1.0 ug/ml” value is 8; the “Fold enhanced, compound 2 2.0 ug/ml” value was 4; the “Fold enhanced, compound 3 0.6 ug/ml” value amounted to 16.
With Gentamicin, in experiment [1], the “MIC plus compound 1 0.60 ug/ml” value came out at 4 µg/mL, the “MIC compound 2 0.98 ug/ml” value was 4 µg/mL, the “MIC plus compound 3 0.30 ug/ml” value was determined as 2 µg/mL and the “MIC plus compound 4 0.75 ug/ml” value was determined as 4 µg/mL. Besides, in experiment [1], the MIC alone is 8 µg/mL; the “Fold enhanced, compound 1 0.60 ug/ml” value was found to be 2; the “Fold enhanced, compound 2 0.98 ug/ml” value came to 2; the “Fold enhanced, compound 3 0.30 ug/ml” value is recorded as 4. Besides, the “Fold enhanced, compound 4 0.75 ug/ml” value in experiment [1] came out at 2. Also, in experiment [2], the “MIC plus compound 1 1.0 ug/ml” value amounted to 4 µg/mL, the “MIC plus compound 2 2.0 ug/ml” value was determined as 4 µg/mL, the “MIC plus compound 3 0.6 ug/ml” value is 2 µg/mL and the MIC alone was 8 µg/mL. Also, in experiment [2], the “Fold enhanced, compound 1 1.0 ug/ml” value was found to be 2; the “Fold enhanced, compound 2 2.0 ug/ml” value was 2; the “Fold enhanced, compound 3 0.6 ug/ml” value turned out to be 4.
As for `OC(Cn1cncn1)(Cn1cncn1)c1ccc(F)cc1F` [Fluconazole], the MIC in experiment [3] (Table 10A, fluconazole in presence of compound 3 at 0.25 μg/ml, read-out: MIC FL + comp 3 (0.25 μg/m1)) worked out at 4 µg/mL; in experiment [3] (Table 10B (compound 4), fluconazole in presence of compound at 0.50 μg/ml, read-out: MIC FL + comp 3 (0.50 μg/ml)) it was 8 µg/mL; in experiment [3] (read-out: MIC Fluconazole (FL)) it was 128 µg/mL.
Take `CCN1CCN(C(=O)N[C@@H](C(=O)N[C@@H]2C(=O)N3[C@@H]2SC(C)(C)[C@@H]3C(=O)O)c2ccccc2)C(=O)C1=O` [Piperacillin]: in experiment [2], the MIC was determined as 16 µg/mL; the “Fold enhanced, compound 1 1.0 ug/ml” value is 4 (4); the “Fold enhanced, compound 2 2.0 ug/ml” value is 4 (4); the “Fold enhanced, compound 3 0.6 ug/ml” value came out at 8.
As to `CC1(C)S[C@@H]2[C@H](NC(=O)Cc3ccccc3)C(=O)N2[C@H]1C(=O)O` [Benzylpenicillin], in experiment [1], the MIC came to 64 µg/mL; the “Fold enhanced, compound 1 0.60 ug/ml” value was 8 (8); the “Fold enhanced, compound 2 0.98 ug/ml” value is listed as 8 (8); the “Fold enhanced, compound 3 0.30 ug/ml” value came to 16. The “Fold enhanced, compound 4 0.75 ug/ml” value in experiment [1] is recorded as 8 (8).
For the compound `CN(C)[C@@H]1C(=O)C(C(N)=O)=C(O)[C@@]2(O)C(=O)C3=C(O)c4c(O)cccc4[C@@](C)(O)[C@H]3C[C@@H]12` [Tetracyclin], in experiment [1], the “MIC plus compound 1 0.60 ug/ml” value stood at 4 µg/mL, the “MIC compound 2 0.98 ug/ml” value worked out at 8 µg/mL, the “MIC plus compound 3 0.30 ug/ml” value stood at 2 µg/mL and the “MIC plus compound 4 0.75 ug/ml” value came out at 8 µg/mL. For the same compound, in experiment [1], the MIC alone amounted to 16 µg/mL; the “Fold enhanced, compound 1 0.60 ug/ml” value is on record as 2; the “Fold enhanced, compound 2 0.98 ug/ml” value is on record as 2; the “Fold enhanced, compound 3 0.30 ug/ml” value turned out to be 4. Further, in experiment [1], the “Fold enhanced, compound 4 0.75 ug/ml” value is 2. In experiment [2], the “MIC plus compound 1 1.0 ug/ml” value is on record as 4 (4) μg/ml, the “MIC plus compound 2 2.0 ug/ml” value is listed as 4 (4) μg/ml, the “MIC plus compound 3 0.6 ug/ml” value is 2 µg/mL and the MIC alone is 16 µg/mL. In addition, in experiment [2], the “Fold enhanced, compound 1 1.0 ug/ml” value is 4 (4); the “Fold enhanced, compound 2 2.0 ug/ml” value is reported as 4 (4); the “Fold enhanced, compound 3 0.6 ug/ml” value is 8.
`CC(=O)NC[C@H]1CN(c2ccc(N3CCOCC3)c(F)c2)C(=O)O1` [Linezolid]: the “Effect on the infection / bacteria in mouse peritoneum” value in experiment [4] (sub-therapeutic dose alone) is “no effect on the infection”. In addition, the score at sampling in experiment [4] (treatment 0 and 2 hours, sampling 5 hours, Linezolid 1 mg/ml 0.5 ml, Compound 3 0.1 mg/ml 0.5, combination Linezolid 2 mg/ml (0.25 ml) and compound 3 0.2 mg/ml (0.25 ml), individual mice) was 2 and 3 (2×). In addition, in experiment [4] (setting [5]), the Cfu/ml peritoneum was 2.08E+09 Cfu/ml and 2.20E+09 Cfu/ml and 2.40E+09 Cfu/ml; the “log (cfu/ml) peritoneum” value was 9.32 log (cfu/ml) and 9.34 log (cfu/ml) and 9.38 log (cfu/ml).
With Dicloxacillin & Methicillin, in experiment [1], the “MIC plus compound 1 0.60 ug/ml” value was 4 µg/mL, the “MIC compound 2 0.98 ug/ml” value was 4 µg/mL, the “MIC plus compound 3 0.30 ug/ml” value stood at 2 µg/mL and the “MIC plus compound 4 0.75 ug/ml” value was found to be 4 µg/mL. For the same compound, in experiment [1], the MIC alone was 64 µg/mL; the “Fold enhanced, compound 1 0.60 ug/ml” value was determined as 16; the “Fold enhanced, compound 2 0.98 ug/ml” value is listed as 16; the “Fold enhanced, compound 3 0.30 ug/ml” value is on record as 32. Further, the “Fold enhanced, compound 4 0.75 ug/ml” value in experiment [1] is on record as 16.
Consider `CC[C@H]1OC(=O)[C@H](C)[C@@H](O[C@H]2C[C@@](C)(OC)[C@@H](O)[C@H](C)O2)[C@H](C)[C@@H](O[C@@H]2O[C@H](C)C[C@H](N(C)C)[C@H]2O)[C@](C)(O)C[C@@H](C)C(=O)[C@H](C)[C@@H](O)[C@]1(C)O` [Erythromycin], for which, in experiment [1], the MIC is 16 µg/mL; the “Fold enhanced, compound 1 0.60 ug/ml” value is listed as 4 (4); the “Fold enhanced, compound 2 0.98 ug/ml” value is 4 (4); the “Fold enhanced, compound 3 0.30 ug/ml” value is 8. Besides, the “Fold enhanced, compound 4 0.75 ug/ml” value in experiment [1] is given as 4 (4).
